Series [1] concerns human stromal bladder cells. As to the kind of experiment: Basal growth of human stromal bladder cells. It is filed as cell-based. To be noted: FIG. 2. The source says: The Inventors confirmed the presence of vitamin D receptors (VDRs), as previously reported in the literature, on these cells (see below in FIG. 1).
The maximum tolerated dose (MTD) in rats is also listed for each compound (Table 5).

Series [2] relates to Renin mRNA in As4.1 cells. As to the kind of experiment: Renin mRNA inhibition in murine juxtaglomerular cell line As4.1. Format: cell-based. To be noted: Mus musculus, 24 h, real time PCR normalized versus β-actin, read-out: Renin mRNA inh.As4.1/wt. The protocol:
As4.1 cells (80% subconfluent) were treated in complete medium with compounds of the invention at 10^−8, 10^−9 and 10^−10 M for 24 h. Total RNA was extracted using RNeasy Mini kit (Qiagen); treated with DNase I (Qiagen) and Reverse Transcription Reagent (Applied Biosystems) with Random Examers were used for reverse transcription according to the manufacturers' instructions. Real Time PCR analysis was performed in multiplex using commercially available β-actin VIC-conjugated probe (cat. n. 4352341E, Applied Biosystems) and custom designed mRENIN FAM-conjugated probe (Assay by Design, Applied Biosystems; Forward: […]; Reverse: […]; Probe: FAM-[…]-MGB). Reactions were performed in a 25 μL volume containing 12,5 μl 2× Master Mix (Applied Biosystems), 10 ng/reaction/well cDNA, and 2,5 μM each gene-specific primer. An ABI PRISM 7700 analyzer (Applied Biosystems) was used at 50° C. for 2 minutes and 95° C. for 10 minutes, followed by 40 cycles at 95° C. for 15 seconds and 60° C. for 1 minute. Cycle threshold (Ct) values were exported onto Excel worksheets for analysis. Test cDNA results were normalized versus mouse β-actin housekeeping gene. Fold differences in gene expression between the subtracted versus the unsubtracted populations were expressed using the method of 2^−ΔΔCt. (Table 6)
Background: In qPCR the cycle at which signal appears reflects the starting amount.

The nature of series [3]: Determination of Maximum Tolerated Dose (MTD) in mice. The note with it: mouse, in vivo, po; female C57BL/6 mice, p.o. daily for four days; highest dose without hypercalcemia (serum calcium >10.7 mg/dl).
The test system of a further series is RT4. In words: Proliferation assay using bladder cancer cell lines: RT4. Format: cell-based, human. The note with it: Homo sapiens, RT-4; 72 h culture, CyQuant proliferation assay. The protocol: (§1) Bladder cancer cell lines (T24, RT112, HT1376 and RT4 are human bladder cancer cell lines; NHEK are normal human keratinocytes) were obtained from the European Collection of Cell Cultures (Salisbury, UK). Cells were plated at 3×10^3 per well, in flat bottomed 96-well plates in 100 μl of DMEM medium containing: 5% Fetal Clone 1,50 μg/l gentamicin, 1 mM sodium pyruvate and 1% non-essential amino acids. After culturing for 24 h at 37° C. in 5% CO2, to allow cells to adhere to the plates, VDR ligands (compounds (1)-(14)) were added at concentrations ranging from 100 μM to 0.3 μM in 100 μl of above-mentioned complete medium. After a further 72 h of culture, cell proliferation was measured using a fluorescence-based proliferation assay kit. (CyQuant Cell Proliferation Assay Kit, Molecular Probes, Eugene, Oreg., USA). The IC50 was calculated from the regression curve of the titration data.

The next series relates to NHEK. As to the kind of experiment: Proliferation assay: NHEK normal human keratinocytes. Format: cell-based. To be noted: 72 h culture, CyQuant proliferation assay. The protocol: as §1
A further series deals with RT112. In words: Proliferation assay using bladder cancer cell lines: RT112. Format: cell-based, human. The note with it: Homo sapiens, RT-112; 72 h culture, CyQuant proliferation assay. The method, then: as §1
The subject of series [4] is IFN-γ production by allogeneic PBMC. In words: IFN-γ production in the mixed leukocyte response (MLR). To be noted: 120 h; MLR of allogeneic PBMC, 5 days, ELISA; read-out: INF-γ IC50. Format: cell-based. The method, then: Immature dendritic cells (DC) were prepared as described in Romani, N. et al. (Romani, N. et al. (1996) J. Immunol. Meth. 196:137). IFN-γ production by allogeneic T cell activation in the mixed leukocyte response (MLR) was determined as described in Penna, G., et al., J Immunol., 164: 2405-2411 (2000).
Briefly, peripheral blood mononuclear cells (PBMC) were separated from buffy coats by Ficoll gradient and the same number (3×10^5) of allogeneic PBMC from 2 different donors were co-cultured in 96-well flat-bottom plates. The vitamin D3 compounds were added to each of the cultures.

The structures appear in SMILES notation.

The MTD is the largest dose that counted as tolerated. In the case of `C=C1/C(=C\C=C2/CCC[C@]3(C)C(C4(CCCC(C)(C)O)CC4)=CCC23)CC(O)C[C@@H]1O` (stereo partly drawn) [Compound 10, 1α,25-Dihydroxy-16-ene-20-cyclopropyl-cholecalciferol], the “inhibiting the basal growth of bladder cells” value (shortened to “inhibiting the basal growth”) in series [1] is “effective”. In addition, the IC50 in series [2] amounted to 0.0262 µM; in the series with RT4, 2 µM; with NHEK, 5.2 µM; in the series with RT112 it was 27.6 µM. Besides, the MTD at 4 days in series [3] is 1 µg/kg.

Consider `C=C1/C(=C\C=C2/CCC[C@]3(C)C(C4(CC#CC(C)(C)O)CC4)=CCC23)CC(O)C[C@@H]1O` (stereo partly drawn) [Compound 1, 1α,25-Dihydroxy-16-ene-20-cyclopropyl-23,24-yne-cholecalciferol], for which the IC50 in series [4] is 33.6 pM; in series [2], 0.00942 µM; in the series with RT4, 10.6 µM; with RT112, more than 30 µM. The MTD at 4 days in series [3] was 10 µg/kg.

As to `C=C1/C(=C\C=C2/CCC[C@]3(C)C(C4(C/C=C\C(O)(C(F)(F)F)C(F)(F)F)CC4)=CCC23)CC(O)C[C@@H]1F` (stereo partly drawn) [Compound 14, 1α-Fluoro-25-hydroxy-16,23Z-diene-20-cyclopropyl-26,27-hexafluoro-cholecalciferol], the IC50 in series [4] was 81 pM; in series [2], 0.006 µM; in the series with RT4 it was 3.1 µM; in the series with NHEK, 4 µM; in the series with RT112, 21 µM. For the same compound, the maximal tolerated dose (MTD) at 4 days in series [3] is 1 µg/kg.

In the case of `CC(C)(O)C#CCC1(C2=CCC3/C(=C/C=C4/CC(O)C[C@H](O)C4)CCC[C@]23C)CC1` (stereo partly drawn) [Compound 2, 1α,25-Dihydroxy-16-ene-20-cyclopropyl-23,24-yne-19-nor-cholecalciferol], the IC50 in series [4] is 25.4 pM; in series [2], 0.0972 µM; in the series on RT4, 6.3 µM; in the series with RT112, more than 30 µM. The MTD at 4 days in series [3] is 10 µg/kg.

As for `C=C1/C(=C\C=C2/CCC[C@]3(C)C(C4(CC#CC(O)(C(F)(F)F)C(F)(F)F)CC4)=CCC23)CC(O)C[C@@H]1O` (stereo partly drawn) [Compound 4, 1α,25-Dihydroxy-16-ene-20-cyclopropyl-23,24-yne-26,27 hexafluoro-cholecalciferol], the “inhibiting the basal growth” value in series [1] is reported as “effective”. For the same compound, the IC50 worked out at 45 pM in series [4]; 0.00299 µM in series [2]; 1.7 µM with RT4; 2 µM with NHEK; 13.8 µM in the series on RT112. For the same compound, the maximum tolerated dose (MTD) at 4 days in series [3] was 0.3 µg/kg.

As to `C=C1/C(=C\C=C2/CCC[C@]3(C)C(C4(C/C=C/C(O)(C(F)(F)F)C(F)(F)F)CC4)=CCC23)CC(O)C[C@@H]1O` (stereo partly drawn) [Compound 6, 1α,25-Dihydroxy-16-ene-20-cyclopropyl-23,24-E-ene-26,27-hexafluoro-cholecalciferol], the “inhibiting the basal growth” value in series [1] is on record as “effective”. Further, the IC50 in series [4] came out at 40 pM; in series [2], 0.000547 µM; in the series on RT4, 2.3 µM; in the series with NHEK, 5.8 µM; with RT112, 10.6 µM. Besides, the MTD at 4 days in series [3] is 0.3 µg/kg.

Consider `C=C1/C(=C\C=C2/CCC[C@]3(C)C(C4(CC#CC(C)(C)O)CC4)=CCC23)CC(O)C[C@@H]1F` (stereo partly drawn) [Compound 11, 1α-Fluoro-25-hydroxy-16-ene-23-yne-20-cyclopropyl-cholecalciferol], for which the IC50 in series [4] is 16.4 pM; in series [2] it was 0.303 µM; in the series on RT4 it was 16.7 µM; with RT112, more than 30 µM. The MTD at 4 days in series [3] was 100 µg/kg.

As for `C=C1/C(=C\C=C2/CCC[C@]3(C)C(C4(C/C=C/C(O)(C(F)(F)F)C(F)(F)F)CC4)=CCC23)CC(O)C[C@@H]1F` (stereo partly drawn) [Compound 13, 1α-Fluoro-25-hydroxy-16,23E-diene-20-cyclopropyl-26,27-hexafluoro-cholecalciferol], the IC50 in series [4] was found to be 65 pM; in series [2] it was 0.0095 µM; in the series on RT4 it was 3.6 µM; in the series with NHEK it was 5.1 µM; in the series with RT112, 17 µM. Besides, the MTD at 4 days in series [3] was 3 µg/kg.

On to `C[C@]12CCC/C(=C\C=C3\CC(O)C[C@H](O)C3)C1CC=C2C1(C/C=C/C(O)(C(F)(F)F)C(F)(F)F)CC1` (stereo partly drawn) [Compound 5, 1α,25-Dihydroxy-16-ene-20-cyclopropyl-23,24-E-ene-26,27-hexafluoro-19-nor-cholecalciferol], for which the IC50 in series [4] was 12 pM; in series [2], 0.0044 µM; with RT4, 4.6 µM; in the series with NHEK it was 4.9 µM; in the series with RT112, 14.5 µM.

Regarding `C=C1/C(=C\C=C2/CCC[C@]3(C)C(C4(CC#CC(O)(C(F)(F)F)C(F)(F)F)CC4)=CCC23)CC(O)C[C@@H]1F` (stereo partly drawn) [Compound 12, 1α-Fluoro-25-hydroxy-16-ene-20-cyclopropyl-23-yne-26,27-hexafluoro-cholecalciferol], the IC50 came out at 585 pM in series [4]; 0.00973 µM in series [2]; 3.6 µM with RT4; 1 µM in the series on NHEK; 16.9 µM in the series with RT112. Also, the MTD at 4 days in series [3] is 0.3 µg/kg.

These data come from US20080318911A1, “20-Cyclopropyl, 26,27-Alkyl/Haloalkyl Vitamin D3 Compounds and Methods of Use Thereof” (BIOXELL S.P.A., priority 2004, published 2008).
